{
  "source": "patent US20100305139A1",
  "about": "“METHOD OF TREATING ABNORMAL LIPID METABOLISM” (MITSUBISHI TANABE PHARMA CORPORATION, priority 2005, published 2010)",
  "key": {"Wistar rat": {"system": "Wistar rat", "experiment": "Fasting blood sugar level in Wistar rat"}, "ZF rat": {"system": "ZF rat", "experiment": "Oral fat loading in ZF rat (abnormal lipid and glucose metabolism)", "assay_type": "in vivo", "method": "Effect of Compound 3 on Abnormal Lipid Metabolism and Abnormal Glucose Metabolism after Oral Fat Loading in ZF Rat\nThe test was performed using male ZF rats. The rats were divided into two groups (10 rats/group). Compound 3 (1 mg/kg) or a 0.5% hydroxypropylmethylcellulose solution, which was a vehicle used to dissolve the compound, was administered by gavage to each of the rats. The administered volume was 2 mL/kg for both. At 15 min after the administration, a fat emulsion (main component was soybean oil, Intralipos; Otsuka Pharmaceutical Factory, Inc.) was orally loaded at the rate of 10 mL/kg. Blood samples were sequentially collected, and plasma TG concentration, free fatty acids concentration, glucose concentration and insulin concentration were measured."}, "fat-loaded ZF rat": {"system": "fat-loaded ZF rat", "experiment": "Oral glucose loading in fat-loaded ZF rat", "assay_type": "in vivo", "method": "Effect of Compound 3 on Increase in Plasma Glucose after Oral Glucose Loading in Fat-Loaded ZF Rat\nThe test was performed using male ZF rats. The number of experimental examples was 10 for each group. […] The administered volume was 2 mL/kg for both. At 15 min after the administration, a fat emulsion (main component was soybean oil, Intralipos; Otsuka Pharmaceutical Factory, Inc.) was orally loaded at the rate of […]. Furthermore, at 6 hr after the administration of fat emulsion, a mixed carbohydrate solution of starch, sucrose and lactose (mixing ratio 6:3:1) was orally administered at 3.5 g/kg. The volume administered of each of the fat emulsion and the carbohydrate solution was 10 mL/kg. Blood samples were sequentially collected, and plasma glucose concentration was measured."}, "[1]": {"system": "rats with type 2 diabetes", "conditions": "non-patent reference 7; cited from earlier work"}, "[2]": {"conditions": "ZF rat, summary statement, dose not given"}},
  "data": [
    {"smiles": "Br.Br.Br.Br.Br.Cc1cc(N2CCN([C@@H]3CN[C@H](C(=O)N4CCSC4)C3)CC2)n(-c2ccccc2)n1.Cc1cc(N2CCN([C@@H]3CN[C@H](C(=O)N4CCSC4)C3)CC2)n(-c2ccccc2)n1", "note": "[compound 3, 3-{(2S,4S)-4-[4-(3-methyl-1-phenyl-1H-pyrazol-5-yl)piperazin-1-yl]pyrrolidin-2-ylcarbonyl}thiazolidine 2.5 hydrobromide]", "values": [
      {"measurement": "fasting plasma glucose concentration", "setting": "Wistar rat; overnight-fasted male Wistar rats, gavage, dose of 100 mg/kg, maximum change from value before drug administration (FIG. 6)", "value": "no effect"},
      {"measurement": "fasting insulin concentration", "setting": "Wistar rat; overnight-fasted male Wistar rats, gavage, dose of 100 mg/kg, maximum change from value before drug administration (FIG. 7)", "value": "no effect"},
      {"measurement": "increase in the plasma TG concentration after fat loading", "setting": "ZF rat; male ZF rats, 1 mg/kg by gavage 15 min before oral fat emulsion 10 mL/kg, change from value before fat loading (FIG. 1)", "value": "suppressed"},
      {"measurement": "increase in the plasma free fatty acids concentration after fat loading", "setting": "ZF rat; male ZF rats, 1 mg/kg by gavage 15 min before oral fat emulsion 10 mL/kg, change from value before fat loading (FIG. 2)", "value": "suppressed"},
      {"measurement": "increase in the plasma glucose concentration after fat loading", "setting": "ZF rat; male ZF rats, 1 mg/kg by gavage 15 min before oral fat emulsion 10 mL/kg, change from value before fat loading (FIG. 3)", "value": "suppressed"},
      {"measurement": "plasma insulin concentration after fat loading", "setting": "ZF rat; male ZF rats, 1 mg/kg by gavage 15 min before oral fat emulsion 10 mL/kg, change from value before fat loading (FIG. 4)", "value": "transiently increased"},
      {"measurement": "increase in the baseline plasma glucose concentration by fat loading", "setting": "fat-loaded ZF rat; male fat-loaded ZF rats, 1 mg/kg by gavage 15 min before fat emulsion (FIG. 5)", "value": "suppressed"},
      {"measurement": "increase in the plasma glucose concentration after oral glucose loading", "setting": "fat-loaded ZF rat; male fat-loaded ZF rats, 1 mg/kg by gavage, mixed carbohydrate 3.5 g/kg orally at 6 hr after fat loading (FIG. 5)", "value": "suppressed"}
    ]},
    {"smiles": "Br.Cc1cc(N2CCN([C@@H]3CN[C@H](C(=O)N4CCSC4)C3)CC2)n(-c2ccccc2)n1", "note": "[compound 1, 3-{(2S,4S)-4-[4-(3-methyl-1-phenyl-1H-pyrazol-5-yl)piperazin-1-yl]pyrrolidin-2-ylcarbonyl}thiazolidine hydrobromide]", "values": [
      {"measurement": "hypoglycemia", "setting": "Wistar rat; summary statement, unlike insulin secretagogue, dose not given", "value": "does not induce hypoglycemia"},
      {"measurement": "blood glucose increase after the fat loading", "setting": "ZF rat; [2]", "value": "suppresses"},
      {"measurement": "increase in the plasma TG concentration after fat loading", "setting": "ZF rat; obese Zucker fatty rat having insulin resistance, summary statement, dose not given", "value": "suppresses"},
      {"measurement": "blood glucose increase after glucose loading in an oral glucose loading test after fat loading", "setting": "fat-loaded ZF rat; [2]", "value": "markedly suppresses"}
    ]},
    {"smiles": "CC(C)[C@H]1CC[C@H](C(=O)N[C@H](Cc2ccccc2)C(=O)O)CC1", "note": "[nateglinide, (−)-N-(trans-4-isopropylcyclohexylcarbonyl)-D-phenylalanine, reference compound]", "values": [
      {"measurement": "increase in blood lipid by fat loading", "setting": "[1]", "value": "suppresses"},
      {"measurement": "plasma glucose concentration (hypoglycemia)", "setting": "Wistar rat; overnight-fasted male Wistar rats, gavage, nateglinide 10, 30, 100 or 300 mg/kg, maximum change from value before drug administration (FIG. 6)", "value": "induced hypoglycemia"},
      {"measurement": "plasma insulin concentration", "setting": "Wistar rat; overnight-fasted male Wistar rats, gavage, nateglinide 10, 30, 100 or 300 mg/kg, maximum change from value before drug administration (FIG. 7)", "value": "increased"}
    ]}
  ]
}
